Reference: patent US20150105252A1, “SUBSTITUTED PYRAZOLES AS HERBICIDES” (E I DU PONT DE NEMOURS AND COMPANY, priority 2013, published 2015)

How the values were obtained:
Conditions in all cases: scale 0 to 100
[1] = test system: radish, wild; experiment: Test D postemergence; format: in vivo, Raphanus raphanistrum
Excerpt: (§1) Seeds of plant species selected from bluegrass (annual bluegrass, Poa annua), blackgrass (Alopecurus myosuroides), canarygrass (littleseed canarygrass, Phalaris minor), chickweed (common chickweed, Stellaria media), galium (catchweed bedstraw, Galium aparine), bromegrass, downy (downy bromegrass, Bromus tectorum), field poppy (Papaver rhoeas), field violet (Viola arvensis), foxtail, green (green foxtail, Setaria viridis), deadnettle (henbit deadnettle, Lamium amplexicaule), ryegrass, Italian (Italian ryegrass, Lolium multiflorum), kochia (Kochia scoparia), lambsquarters (Chenopodium album), oilseed rape (Brassica napus), pigweed (redroot pigweed, Amaranthus retroflexus), chamomile (scentless chamomile, Matricaria inodora), speedwell (bird's-eye speedwell, Veronica persica), barley, spring (spring barley, Hordeum vulgare), wheat, spring (spring wheat, Triticum aestivum), buckwheat, wild (wild buckwheat, Polygonum convolvulus), mustard, wild (wild mustard, Sinapis arvensis), oat, wild (wild oat, Avena fatua), radish, wild (wild radish, Raphanus raphanistrum), windgrass (Apera spica-venti), Russian thistle (Salsola kali), barley, winter (winter barley, Hordeum vulgare), and wheat, winter (winter wheat, Triticum aestivum) were planted into a silt loam soil and treated preemergence with test chemicals formulated in a non-phytotoxic solvent mixture which included a surfactant.
(§2) At the same time, these species were planted in pots containing Redi-Earth® planting medium (Scotts Company, 14111 Scottslawn Road, Marysville, Ohio 43041) comprising spaghnum peat moss, vermiculite, wetting agent and starter nutrients and treated with postemergence applications of the test chemicals formulated in the same manner. Plants ranged in height from 2 to 18 cm (1- to 4-leaf stage). Treated plants and controls were maintained in a controlled growth environment for 14 to 21 days after which time all species were compared to controls and visually evaluated. Plant response ratings, summarized in Table D, are based on a scale of 0 to 100 where 0 is no effect and 100 is complete control. A dash (-) response means no test result.

[2] = test system: field poppy; experiment: Test D postemergence; format: in vivo, Papaver rhoeas
Excerpt: as §1, §2

[3] = test system: kochia; experiment: Test D postemergence; format: in vivo, Kochia scoparia
Excerpt: as §1, §2

[4] = test system: radish, wild; experiment: Test D preemergence; format: in vivo, Raphanus raphanistrum
Excerpt: as §1, §2

[5] = test system: oilseed rape; experiment: Test D preemergence; format: in vivo, Brassica napus
Excerpt: as §1, §2

[6] = test system: foxtail, green; experiment: Test D postemergence; format: in vivo, Setaria viridis
Excerpt: as §1, §2

[7] = test system: galium; experiment: Test D postemergence; format: in vivo, Galium aparine
Excerpt: as §1, §2

SMILES	Radish, Wild plant response rating ([1]; Postemergence, 31 g ai/ha)	Radish, Wild plant response rating ([1]; Postemergence, 125 g ai/ha)	Radish, Wild plant response rating ([1]; Postemergence, 250 g ai/ha)	Radish, Wild plant response rating ([1]; postemergence, 62 g ai/ha)	Field Poppy plant response rating ([2]; Postemergence, 31 g ai/ha)	Field Poppy plant response rating ([2]; Postemergence, 125 g ai/ha)	Field Poppy plant response rating ([2]; Postemergence, 250 g ai/ha)	Field Poppy plant response rating ([2]; postemergence, 62 g ai/ha)	Kochia plant response rating ([3]; Postemergence, 31 g ai/ha)	Kochia plant response rating ([3]; Postemergence, 125 g ai/ha)	Kochia plant response rating ([3]; Postemergence, 250 g ai/ha)	Kochia plant response rating ([3]; postemergence, 62 g ai/ha)	Plant response rating, Radish, Wild ([4]; 62 g ai/ha)	Plant response rating, Radish, Wild ([4]; 125 g ai/ha)	Plant response rating, Radish, Wild ([4]; 250 g ai/ha)	Plant response rating, Oilseed Rape ([5]; 62 g ai/ha)	Plant response rating, Oilseed Rape ([5]; 125 g ai/ha)	Plant response rating, Oilseed Rape ([5]; 250 g ai/ha)	Foxtail, Green plant response rating ([6]; Postemergence, 31 g ai/ha)	Foxtail, Green plant response rating ([6]; Postemergence, 125 g ai/ha)	other results
CCCc1cc(C(=O)NCC(F)(F)F)nn1Cc1cc(C(F)(F)F)nn1C [Compound 138]	80	100	95	80	55	65	75	55	75	80	80	75	100	100	100	40	100	100	15	65	Foxtail, Green plant response rating ([6]; Postemergence, 250 g ai/ha): 80; Foxtail, Green plant response rating ([6]; postemergence, 62 g ai/ha): 15; Galium plant response rating ([7]; Postemergence, 31 g ai/ha): 80; Galium plant response rating ([7]; Postemergence, 125 g ai/ha): 100; Galium plant response rating ([7]; Postemergence, 250 g ai/ha): 100; Galium plant response rating ([7]; postemergence, 62 g ai/ha): 80
CCOc1cc(C(=O)NC2CC2)nn1Cc1ccnc(C(F)(F)F)c1 [Compound 189]	60	65	85	60	55	75	75	55	75	80	85	75	70	100	100	55	80	100	20	15	Foxtail, Green plant response rating ([6]; Postemergence, 250 g ai/ha): 50; Foxtail, Green plant response rating ([6]; postemergence, 62 g ai/ha): 20; Galium plant response rating ([7]; Postemergence, 31 g ai/ha): 75; Galium plant response rating ([7]; Postemergence, 125 g ai/ha): 75; Galium plant response rating ([7]; Postemergence, 250 g ai/ha): 85; Galium plant response rating ([7]; postemergence, 62 g ai/ha): 75
